The target in series [1] is T1, β-lactoglobulin (BLG) (Bos taurus, UniProt P02754).
T1 construct: The composition in the major whey protein fraction was 89.22% BLG; purchased Davisco Biopure, lot JE 001-3-922
T1 sequence (P02754 17-178): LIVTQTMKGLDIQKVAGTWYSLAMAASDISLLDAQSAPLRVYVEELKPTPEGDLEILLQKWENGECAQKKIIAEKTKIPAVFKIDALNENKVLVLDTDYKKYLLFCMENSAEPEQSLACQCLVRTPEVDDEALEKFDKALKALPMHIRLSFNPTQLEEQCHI
The series can be described thus: Binding of AITC to BLG from disappearance of free -SH / -NH2 groups (Ellman's reagent, OPA). Details: species or system bovine. The settings on record: 25° C., pH 8.5. The procedure: A volume of 50 mL of mixtures was prepared by mixing 1 mM BLG (pH 8.5) with 200 mM AITC in Millipore® water to obtain AITC to BLG molar ratios from 0.1 to 40. Final concentration of ethanol in all sample solutions was adjusted to 5%. Samples were incubated 24 h at room temperature, under agitation (using a roller mixer SRT2, Milian, Switzerland) and protected from light. Upon incubation, contents in free sulfhydryl (—SH) and amino (—NH2) groups were determined using the Ellman's reagent [5,5′-dithio-bis(2-nitrobenzoic acid); DTNB] (Ellman G L. Tissue sulfhydryl groups. 1959. Arch Biochem Biophys, 82, 70-77) and o-phthaldialdehyde (OPA) methods (Hofmann K, Hamm R. Sulfhydryl and disulfide groups in meats. 1978. Adv Food Res, 24, 1-111), respectively.
To determine the amount of total —SH groups sample mixtures were diluted to the final BLG concentration 50 μM in 200 mM Tris-base (Tris(hydrohymethyl)-aminomethan) buffer containing 1% SDS and 8M urea at pH 8.0. 50 μL of 10 mM DTNB in ethanol was added to 3 mL of these samples and they were left 20 min at room temperature under mild agitation. The absorbance at 412 nm was measured against corresponding reagent blanks (1% ethanol in the buffer with DTNB) using an Uvikon® 810 spectrophotometer (Kontron Instruments, Basel, Switzerland). […] Therefore, absorbance values of samples were corrected for the absorbance of corresponding concentrations of AITC. Concentration of SH groups in sample solutions was assessed according to the previously made standard calibration curve. For that purpose L-Cys (Fluka, Switzerland) dissolved in the same buffer in concentration range 0.005-0.1 mM was used.
Quantitative determination of free α- and ε-amino groups was done using the approach based on the method of Goodno et al. (Goodno C. C. Swaisgood H. E., Catignani G. L.; (1981). A fluorimetric assay for available lysine in proteins. Anal. Biochem. 115(1), 203-211.) with modifications done in our laboratory. Briefly, the determination of amino groups was carried out by mixing sample solutions (0.1 mL) with 0.3% (w/v) N-acetyl-L-cystein (Fluka, Switzerland) in borate buffer pH 9.3 (9.1 mL) and 20% SDS (w/w; 0.5 mL). […] Upon incubation, mixtures were allowed to cool down at room temperature for 30 minutes before absorbance reading was done at 340 nm. […] Therefore, absorbance values of samples were corrected for the absorbance of corresponding AITC concentrations. Concentration of free (α- and ε-) amino groups in sample solutions was assessed according to the previously made standard calibration curve. […]
Assuming that one AITC can bind per one —SH group or per one —NH2 group at the time, the molar binding ratio of AITC to BLG (BAITC/BLG) was estimated from measured values for free —SH and —NH2 groups. […]
A general note: Ellman's reagent forms a yellow product with free thiols.

Series [2] in a line: Emulsifying properties, 10% sunflower oil-in-water emulsions, stability on storage. Type of series: physicochemical. The protocol:
Emulsifying properties of BLG-AITC conjugates, non-heated and heated at pH 7.0 and 4.0 (prepared as described in examples 1 and 2), were evaluated by preparing emulsions containing 10% (w/w) of “high oleic” sunflower oil (Oleifico SABO, Manno, Switzerland). Samples containing BLG-AITC conjugates in the equimolar ratio were diluted to 0.25 mM BLG and mixed with oil in a pyrex tube (D 25 mm, V 35 mL) to a final weight of 20 g. They were pre-homogenized using an Ultra Turrax® T25 equipped with a S25N-10G dispersing head (IKA-Werke, Staufen, Germany) rotating at 16,000 rpm for 1 minute. Homogenization of emulsions was completed using an ultrasonic processor (Hielscher UP400S, power 400 W, frequency 24 kHz) and a sonotrode (diameter 7 mm, approx. length 100 mm, titanium) at room temperature for 75 seconds and 75% amplitude of the ultrasound maximal power. This emulsification time was enough to disperse the oil in small droplets and to avoid excessive heating of the sample.
Stability of emulsions to creaming and flocculation was followed over 33 days of storage at 4° C.

Series [3] can be described thus: Foaming properties (Foamscan). Type of series: physicochemical. The settings on record: for foam volume stability: over 30 min. The protocol: Foaming properties of samples (prepared as described in example 1) were evaluated using the standardized method proposed by Guillerme C, Loisel W, Bertrand D, Popineau Y. Study of foam stability by video image analysis: Relationship with the quantity of liquid in the foams. 1993. J Text Stud, 24, 287-302. The apparatus used was a standard version of the Foamscan™ from Teclis-ITConcept (Longessaigne, France). The principle of the method is to foam a definite quantity of protein dispersion by infusing gas into it through a glass frit of specific porosity. The gas flow and duration of the bubbling are controlled. The foam is generated on the surface of the liquid and it rises in the glass tube where its height is followed in real time by image analysis using a charged-coupled device (CCD) camera. The amount of liquid incorporated into the foam and the drainage rate are followed by measuring the conductivity as a function of time and with reference to the conductivity of the solution before bubbling, in the cuvette (with the remaining liquid phase), and at electrodes placed at different heights of the tube (Kato A, Takahashi A, Matsudomi N, Kobayashi K. Determination of foaming properties of proteins by conductivity measurements. 1983. J Food Sci, 48, 62-65).
BLG-AITC conjugates were prepared as described in example 1 and then acidified to pH 7.0 or 4.0 by adding 1M HCl. The amount of HCl added was ˜0.02% and ˜0.8% of the total volume, for neutral and acidic pH adjustment, respectively. 12 mL of each sample at both pHs, was put into 12 mL-glass vial and heated on 85° C. for 15 min, in addition to 5 min necessary for temperature in the vial to reach 85° C. The heating was done without agitation, in a temperature-controlled water-bath. Subsequently, samples were let to cool down at room temperature over 40 minutes under a mild agitation, and then put on ice until further analysis.
A volume of 20 mL of the sample solution (non-heated and heated BLG-AITC covalent complexes with the AITC to BLG molar ratio 0.5, 1 and 2, at both pH), diluted to 55 μM BLG (0.1%) was placed in the cuvette. Nitrogen at the flow rate 80 mL/min was bubbled in through the glass frit of porosity 4, creating the air bubbles with diameters between 10 and 16 μm. This flow rate allowed efficient foam formation before strong gravitational drainage occurred. The bubbling was stopped when the foam volume of 110 cm^3 was reached. Subsequently, foam capacity (FC=volume of foam/volume of gas injected) and foam expansion (FE=volume of the foam/volume of the liquid in the foam) were calculated. Foam volume and liquid stability (time for the foam to drain 50% of its initial liquid content) were followed over next 30 min at 24±1° C.

Series [4] deals with Staphylococcus aureus. The series can be described thus: Antimicrobial activity, optical density decrease at 600 nm. The settings on record: 0.5 mM BLG, AITC/BLG molar ratio 1 to 20, 24 h at 37° C. Type of series: cell-based. The procedure:
(§1) Antimicrobial properties of BLG-AITC conjugates were tested against Escherichia coli and Staphylococcus aureus. Single colony of each bacteria strain, previously grown on agar plates, was inoculated into 10 mL of brain-heart infusion (BHI) broth and incubated 24 h at 37° C. under agitation. For antimicrobial properties evaluation these pre-cultures were diluted 100 times in BHI broth.
(§2) BLG-AITC covalent complexes, with the AITC to BLG molar ratio 1, 2, 10 and 20, were prepared as described in the example 1 with the difference that 200 mM AITC solution was prepared in DMSO. Samples were subsequently acidified to pH 7.0 and then concentrated 5 times by using Centrisart® I centrifugal ultrafiltration units with cellulose triacetate ultrafilters having the molecular weight cut-off of 10 kDa (Sartorious, Germany) according to manufactures instructions.
(§3) An aliquot of 600 μL of concentrated samples was added to 2.4 mL of BHI broth containing E. coli or S. aureus to reach the starting concentrations of BLG (0.5 mM) and corresponding concentration of AITC. Controls in which 600 μL of 5% DMSO or water was added were prepared as well. Test tubes with sample mixtures were then incubated 24 h at 37° C. under stirring. Subsequently, optical densities (OD) of samples were measured at 600 nm. To evaluate the inhibition of bacteria growth, ODs of samples containing BLG-AITC covalent complexes were normalized by OD of the corresponding control and are expressed as the OD decrease in percentage.

Series [5] relates to Escherichia coli. The series is described as above. Conditions: 0.5 mM BLG, AITC/BLG molar ratio 1 to 20; 24 h at 37° C.; OD 600 nm. It counts as cell-based. The protocol: as §1, §2, §3

With `C=CCN=C=S` [AITC, Allyl-isothiocyanate], the “dissociation constant KD” value in series [1] (-SH group of BLG) is given as “very low”; in series [1] (amino groups of BLG) it was “high”. Further, in series [1] (amino groups of BLG), the “number of possible binding sites” value is reported as “larger number of possible binding sites”. Also, the “maximum number of saturation site (nmax)” value in series [1] (single free sulfhydryl group of BLG, one site binding fit) was 0.84±0.06. Besides, the “ability to emulsify the oil” value in series [2] (0.25 mM AITC alone, 10% of sunflower oil) is “not able to properly emulsify”. Besides, the oiling-off result in series [2] (0.25 mM AITC alone, at day=0 and after 24 days of storage) was “significant oiling-off”.

Regarding “BLG-AITC covalent complexes: covalent complexes of β-lactoglobulin and allyl isothiocyanate, various AITC to BLG molar ratios”, in series [3] (foam produced in acidic conditions versus pH 7.0), the “improvement of foam liquid stability (more time stability)” value is listed as “more than 30%”. Moreover, the foam volume stability result in series [3] (pH 4.0, without or with heating) was “more volume stable than at pH 7.0”; in series [3] (pH 7.0, with or without heat treatment), “volume stable foams”. For the same compound, in series [4], the “sensitivity compared with E. coli” value was “more sensitive”. The “reduction of optical density (OD)” value in series [4] (OD 600 nm) and in series [5] was “able to reduce the optical density” in each case. Also, in series [2] (10% sunflower oil, molar ratio 1:1, 0.25 mM BLG, 33 days of storage at 4° C., neutral or acidic pH, with or without heat treatment), the “stability of emulsions to creaming and flocculation” value is on record as “very stable emulsions”.

The values are drawn from patent US20110319318A1, “COVALENT MILK PROTEIN/ISOTHIOCYANATE COMPLEXES” (NESTEC S.A., priority 2009, published 2011).
